Laboratory results taken from US9556099B2 (INDENA S.P.A., priority 2013, dated 2017).

Columns and labels:
[1] = Plasma and brain levels in mice treated subacutely by intraperitoneal administration (HPLC/MS/MS); details: 20 mg/kg i.p. twice a day for 4 days, mean±S.E. of 4 animals
Experimental: In mice treated subacutely (twice a day for 4 days) by intraperitoneal administration at the dose of 20 mg/kg of the products according to the invention, their brain and plasma levels were determined by a combined HPLC/MS/MS analysis technique developed on the basis of a method already described by Keller J. H. et al. (Anal. Chem. 75, 6084, 2003).
Each value is the mean±S.E. of 4 animals. Time 0 corresponds to the 14th hour after the previous treatment

[2] = system: neuropathological damage induced by Aβ fibrils; experiment: Neuropathological damage induced by Aβ fibrils in vivo (stereotactic injection into the dorsal hippocampus); details: male rats, product co-injected with 80 μg Aβ fibrils into the dorsal hippocampus; for Density of reactive astrocytes: control 11 ± 4, fibrils only 39 ± 7; for Measurement of astrocyte soma: control 101 ± 18, fibrils only 310 ± 16
Experimental: To evaluate the potential neuroprotective effect of the products according to the invention, male rats were treated stereotactically in the dorsal hippocampus with 80 μg of Aβ fibrils in the presence or absence of the products.

[3] = time 0 h (14th hour after the previous treatment)

Compound `CC(C)=CCC[C@]1(C)[C@@H](CC=C(C)C)C[C@@]2(CC=C(C)C)C(=O)[C@]1(C(=O)C(C)C)C(=O)C(CC=C(C)C)=C2O` [Hyperforin, hyperforin] has a Brain [1, 3] of 15.2 ± 16.1 ng/g, a Brain/Plasma [1, 3] of 1.89 ± 0.91% and a Plasma [1, 3] of 624.5 ± 81.8 ng/mL. For the same compound, the Brain ([1]; time 1 h) was 21.1 ± 7.4 ng/g, the Brain/Plasma ([1]; time 1 h) was 1.24 ± 0.75% and the Plasma ([1]; time 1 h) was 1547.2 ± 226.6 ng/mL. It also gave a Brain ([1]; time 2 h) of 23.2 ± 7.8 ng/g, a Brain/Plasma ([1]; time 2 h) of 1.32 ± 0.82% and a Plasma ([1]; time 2 h) of 1421.3 ± 235.4 ng/mL. For the same compound, the Brain ([1]; time 4 h) was 32.3 ± 8.1 ng/g, the Brain/Plasma ([1]; time 4 h) was 1.91 ± 0.91% and the Plasma ([1]; time 4 h) was 1275.4 ± 212.8 ng/mL. It also gave a Brain ([1]; time 6 h) of 35.6 ± 8.8 ng/g, a Brain/Plasma ([1]; time 6 h) of 2.12 ± 1.12% and a Plasma ([1]; time 6 h) of 1192.6 ± 196.5 ng/mL. The “Density of reactive astrocytes” value [2] was 37 ± 6 GFAP^+ cell./4 × 10^3 μm^2 and the “Measurement of astrocyte soma” value [2] was 306 ± 14 arbitrary unit.
For “deisopropyl-dehydro tetrahydro adhyperforin”, the “Density of reactive astrocytes” value [2] was 24 ± 4 GFAP^+ cell./4 × 10^3 μm^2 and the “Measurement of astrocyte soma” value [2] was 117 ± 9 arbitrary unit.
